Test systems include ACHN renal; HCT-15 colon; HL-60(TB) leukemia; K-562 leukemia; M14 melanoma; MCF7 breast; NCI-H226 lung; OVCAR-4 ovarian; SF-295 CNS; SK-OV-3 ovarian.
Holding throughout (assay): NCI anticancer screen, dose series, 48 h

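Method: 48-hour compound exposure of cells in 96-well plates, five concentrations, linear interpolation of endpoints. The concentration for 50% growth inhibition is given as GI50. The concentration for full growth arrest is given as TGI.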

As for `NC(=O)CC1(O)C=C(Br)C(=O)C(Br)=C1`, the GI50 in the experiment with ACHN renal was 3.44 µM; in the experiment on HCT-15 colon it was 2.65 µM; with HL-60(TB) leukemia, 1.85 µM; with K-562 leukemia, 2.22 µM; in the experiment on M14 melanoma, 2.64 µM; in the experiment with MCF7 breast it was 3.3 µM. In addition, the GI50 with NCI-H226 lung is 20.5 µM; with OVCAR-4 ovarian, 4.58 µM; with SF-295 CNS, 12.6 µM; in the experiment on SK-OV-3 ovarian, 17.9 µM. The TGI is 12.3 µM with ACHN renal; 7.75 µM in the experiment with HCT-15 colon; 4.64 µM with HL-60(TB) leukemia; 8.73 µM in the experiment on K-562 leukemia; more than 32.8 µM with M14 melanoma; 15.3 µM in the experiment with MCF7 breast. Also, the TGI was found to be 46.3 µM in the experiment with NCI-H226 lung, 15.9 µM in the experiment on OVCAR-4 ovarian, 26.5 µM in the experiment on SF-295 CNS and 32.3 µM with SK-OV-3 ovarian.

Consider `O=c1c2ccccc2nc(-c2ccccc2Cl)n1-c1nnc(C(F)(F)F)s1`, for which the GI50 in the experiment with ACHN renal was 3.74 µM; in the experiment on HCT-15 colon it was 2.94 µM; with HL-60(TB) leukemia, 2.38 µM; with K-562 leukemia, 3.77 µM; in the experiment on M14 melanoma it was 4.17 µM; with MCF7 breast, 3.03 µM. Also, the GI50 is 2.4 µM with NCI-H226 lung, 3.15 µM in the experiment on OVCAR-4 ovarian, 2.44 µM in the experiment on SF-295 CNS and 4.01 µM in the experiment on SK-OV-3 ovarian. In addition, the TGI in the experiment on ACHN renal is 27.7 µM; in the experiment on HCT-15 colon, 15 µM; in the experiment with HL-60(TB) leukemia, 8.51 µM; in the experiment with K-562 leukemia it was more than 100 µM; with M14 melanoma it was 23.7 µM; with MCF7 breast, more than 100 µM. Besides, the TGI is 8.55 µM with NCI-H226 lung, more than 100 µM in the experiment with OVCAR-4 ovarian, 9.11 µM in the experiment with SF-295 CNS and 39 µM with SK-OV-3 ovarian.

With `CCN(CC)CCC(CNc1ccnc2cc(Cl)ccc12)c1ccccc1` (centres undefined), the GI50 in the experiment on ACHN renal was 3.91 µM; with HCT-15 colon, 3.51 µM; in the experiment with HL-60(TB) leukemia it was 4.22 µM; in the experiment on K-562 leukemia it was 1.46 µM; in the experiment on M14 melanoma it was 1.71 µM; in the experiment with MCF7 breast it was 4.75 µM. Moreover, the GI50 in the experiment on NCI-H226 lung is 11.3 µM; in the experiment with OVCAR-4 ovarian, 5.89 µM; with SF-295 CNS, 1.83 µM; in the experiment with SK-OV-3 ovarian it was 18.4 µM. The TGI with ACHN renal is 14.7 µM; in the experiment with HCT-15 colon, 20.8 µM; in the experiment with HL-60(TB) leukemia it was 29.2 µM; in the experiment on K-562 leukemia, 5.61 µM; in the experiment on M14 melanoma, 3.19 µM; in the experiment on MCF7 breast, 18 µM. The TGI with NCI-H226 lung stood at 41.1 µM; in the experiment with OVCAR-4 ovarian, 35.7 µM; in the experiment with SF-295 CNS it was 4.79 µM; in the experiment on SK-OV-3 ovarian it was 52.8 µM.

Regarding `O=c1ccc(=O)n(-c2ccccc2)[nH]1`, the TGI in the experiment on ACHN renal, with HCT-15 colon, with HL-60(TB) leukemia, in the experiment with K-562 leukemia, in the experiment with M14 melanoma and in the experiment with MCF7 breast was more than 100 µM throughout. Moreover, the TGI in the experiment with NCI-H226 lung, with OVCAR-4 ovarian, in the experiment with SF-295 CNS and in the experiment with SK-OV-3 ovarian was more than 100 µM throughout.

Regarding `COC(=O)C1(C)CC2C(C)(CCC3(C)C4=CC=C5C(=CC(=O)C(O)=C5C)C4(C)CCC23C)CC1O` (centres undefined), the TGI amounted to 1.53 µM in the experiment on ACHN renal; 0.771 µM in the experiment on HL-60(TB) leukemia; 3.26 µM in the experiment on M14 melanoma; 2.86 µM in the experiment on MCF7 breast; 4.46 µM in the experiment with NCI-H226 lung; 3.4 µM in the experiment with OVCAR-4 ovarian. Further, the TGI in the experiment with SF-295 CNS was 3.43 µM; with SK-OV-3 ovarian it was 4.13 µM.

As to `O=C(COc1ccc(OCC(=O)N2C(=O)CN(c3ccccc3)C2=S)cc1)N1C(=O)CN(c2ccccc2)C1=S`, the GI50 with ACHN renal, in the experiment on HCT-15 colon, in the experiment on K-562 leukemia, with M14 melanoma, in the experiment with OVCAR-4 ovarian and in the experiment on SF-295 CNS was more than 25 µM each time. Also, the TGI in the experiment on ACHN renal, with HCT-15 colon, in the experiment on HL-60(TB) leukemia, in the experiment on K-562 leukemia, with M14 melanoma and in the experiment with MCF7 breast was more than 100 µM each time. For the same compound, the TGI in the experiment on NCI-H226 lung, in the experiment on OVCAR-4 ovarian, with SF-295 CNS and in the experiment with SK-OV-3 ovarian was more than 100 µM each time.

For the compound `COc1cccc(C2=C(c3cn(C)c4cc(F)ccc34)C(=O)NC2=O)c1`, the GI50 in the experiment with ACHN renal is 10.5 µM; in the experiment with HCT-15 colon, 12.7 µM; with HL-60(TB) leukemia it was 13.6 µM; with K-562 leukemia it was 12.4 µM; in the experiment on M14 melanoma it was 24.6 µM; in the experiment with MCF7 breast, 7.56 µM. The GI50 was more than 18.8 µM in the experiment on NCI-H226 lung, more than 8.37 µM in the experiment on OVCAR-4 ovarian, more than 18.3 µM with SF-295 CNS and more than 25 µM in the experiment on SK-OV-3 ovarian. For the same compound, the TGI in the experiment on ACHN renal, with HCT-15 colon, in the experiment with HL-60(TB) leukemia, in the experiment with K-562 leukemia, with M14 melanoma and in the experiment with MCF7 breast was more than 25 µM throughout. In addition, the TGI in the experiment on NCI-H226 lung, in the experiment on OVCAR-4 ovarian, in the experiment on SF-295 CNS and with SK-OV-3 ovarian was more than 25 µM in each case.

With `CN1CCN(c2ccc(NC(=O)c3cncnc3Nc3ccc(OCc4cccc(F)c4)c(Cl)c3)cc2)CC1`, the GI50 with ACHN renal is 1.34 µM; in the experiment with HCT-15 colon it was 0.889 µM; with HL-60(TB) leukemia, 1.3 µM; with K-562 leukemia, 0.799 µM; in the experiment with M14 melanoma, 0.895 µM; in the experiment with MCF7 breast it was 0.993 µM. Besides, the GI50 in the experiment on NCI-H226 lung was 40.9 µM; with OVCAR-4 ovarian, 4 µM; in the experiment on SF-295 CNS, 6.51 µM; in the experiment on SK-OV-3 ovarian, 10 µM. In addition, the TGI was found to be 3.74 µM in the experiment with ACHN renal; 1.91 µM with HCT-15 colon; 3.44 µM in the experiment with HL-60(TB) leukemia; 1.83 µM in the experiment with K-562 leukemia; 1.71 µM with M14 melanoma; 2.4 µM in the experiment on MCF7 breast. In addition, the TGI with NCI-H226 lung is more than 50 µM; with OVCAR-4 ovarian, more than 50 µM; with SF-295 CNS, 16.5 µM; in the experiment with SK-OV-3 ovarian it was more than 50 µM.

Consider `COc1cccc(/C=C/c2ccnc3ccccc23)c1OC`, for which the TGI in the experiment on ACHN renal, in the experiment on HCT-15 colon, with HL-60(TB) leukemia, in the experiment on K-562 leukemia, with M14 melanoma and in the experiment with MCF7 breast was more than 10 µM each time. Also, the TGI in the experiment on NCI-H226 lung, in the experiment on OVCAR-4 ovarian, in the experiment on SF-295 CNS and in the experiment with SK-OV-3 ovarian was more than 10 µM in each case.

These data come from PubChem BioAssay (NCI).
